Patent publication US20160022757A1, “THERAPEUTIC METHODS FOR TREATING SOLID TUMORS AND RELATED DIAGNOSTIC METHODS” (ICAHN SCHOOL OF MEDICINE AT MOUNT SINAI, priority 2013, published 2016)
“Also recorded” adds a separate entry of the source.

Experiments:
[1] = system: ras^G12V p53^RNAi pten^RNAi apc^RNAi animals (adult hindgut); experiment: Dissemination (distant migration) after compound feeding, four-hit model; assay type: in vivo, Drosophila; details: for dissemination in combination with bortezomib: fed together with low non-toxic bortezomib (1 μM); for distant migration (dissemination into the abdominal cavity): four-hit model ras^G12V p53^RNAi pten^RNAi apc^RNAi, compounds fed for one week, single agent
Protocol: (§1) Targeted expression in the adult hindgut: Multigenic combinations were targeted to the adult hindgut using the hindgut specific gal4 line byn-gal4 (V. Hartenstein) and tub-gal80^ts (Bloomington). Crosses were kept at 16° C. to keep the transgenes silent during development and adult females were transferred to 29° C. to induce transgene expression. In addition, GFP and Dcr2 (Dicer 2) were co-expressed to mark the hindgut cells and to facilitate RNAi-mediated knock-down, respectively.
(§2) Compound Feeding: Compound treated food was made by diluting compound stocks (made in 100% DMSO) in semi-defined Drosophila medium to achieve a final concentration of 0.5% DMSO (empirically determined as the non-toxic DMSO dose in semi-defined Drosophila medium). Adult flies were kept on compound treated medium in standard Drosophila vials for 7 days (30 flies/vial, 1 ml food/vial) and provided with fresh compound food every other day.
Compound Feeding: Compounds used in this study were (stock concentrations and sources in parentheses) AZD6244 (200 mM, Selleck Chemicals), SL327 (200 mM, Tocris), GW5074 (100 mM, Tocris), Sorafenib (200 mM, LC Labs), LY294002 (200 mM, LC Labs), Rapamycin (200 mM, LC Labs), BEZ235 (20 mM, LC Labs), Dasatinib (200 mM, LC Labs), SP600125 (200 mM, LC Labs), Bortezomib (200 mM, LC Labs), Cisplatin (200 mM, Sigma), LBH589 (200 mM, LC Labs), Wortmannin (200 mM, LC Labs), PI-103-HCl (100 mM, Tocris), Everolimus (100 mM, LC Labs) and Enzastaurin (50 mM, LC Labs).
Imaging and Scoring: Fluorescence images were taken using a Leica TCS SPE confocal microscope and processed using the Leica LAS-AF software. Scoring and imaging of SA-β-gal staining was performed using an Olympus BX41 microscope and a Nikon DS-Ri1 camera. Distant migration was imaged and scored using a Leica MZ16F dissecting scope with a GFP filter under 10× magnification.
Statistical Analysis: Statistical significance for the distant migration assay was calculated using Fisher's exact test as this test allows the analysis of contingency tables where sample sizes are relatively small. Use of a 4×2 contingency table allowed pairwise comparisons of the distant migration phenotype, which has four phenotypic categories, between different genotypes and/or treatment conditions. Each experiment was performed in duplicate (n=25-30 for each replicate) and multiple times. Error bars indicate standard error of the mean.
Given the low success rate of drug approvals for colorectal cancer (3) the study herein asked whether differences in genetic complexity influence a tumor model's response to drugs. Sixteen compounds that target key cancer relevant pathways and cellular processes were selected (FIG. 11); many of these compounds are currently in clinical trials including for colorectal cancer (25-27). Commencing the day of transgene induction, animals were fed compounds for one week and then scored for issemination into the abdominal cavity. Final compound concentrations in the media ranged from 1 μM-1 mM, corresponding to approximately 10-200 ng/day/animal based on adult feeding rates (FIG. 11).

[2] = system: ras^G12V pten^RNAi animals; experiment: Dissemination after compound feeding, ras^G12V pten^RNAi double; assay type: in vivo, Drosophila; details: single agent
Protocol: as §1
(§3) Compound Feeding: Compound treated food was made by diluting compound stocks (made in 100% DMSO) in semi-defined Drosophila medium to achieve a final concentration of 0.5% DMSO (empirically determined as the non-toxic DMSO dose in semi-defined Drosophila medium). Adult flies were kept on compound treated medium in standard Drosophila vials for 7 days (30 flies/vial, 1 ml food/vial) and provided with fresh compound food every other day. […]
(§4) Imaging and Scoring: Fluorescence images were taken using a Leica TCS SPE confocal microscope and processed using the Leica LAS-AF software. […] Distant migration was imaged and scored using a Leica MZ16F dissecting scope with a GFP filter under 10× magnification.
(§5) Statistical Analysis: Statistical significance for the distant migration assay was calculated using Fisher's exact test as this test allows the analysis of contingency tables where sample sizes are relatively small. […]

[3] = system: ras^G12V p53^RNAi apc^RNAi animals; experiment: Dissemination after compound feeding, ras^G12V p53^RNAi apc^RNAi triple; assay type: in vivo, Drosophila; details: single agent
Protocol: as §1, §3, §4, §5

[4] = system: PI3K and TORC1 activity (p-4EBP); experiment: Western blot analysis of PI3K pathway activity in hindguts after compound treatment; assay type: in vivo, Drosophila; details: four-hit hindguts; for p-4EBP levels: seven days
Source text: Western Blot Analysis: Primary antibodies used were rabbit anti-Drosophila phospho-AKT (S505) (1:1000, Cell Signaling), rabbit anti-pan-AKT (1:1000, Cell Signaling), rabbit anti-phospho-4EBP (T37/46) (1:1000, Cell Signaling), rabbit anti-human phospho-AKT (Ser473) (1:1000, Cell Signaling), mouse anti-α-actin (1:1000, Cell Signaling) and mouse anti-Syntaxin (1:1000, DSHB). HRP-conjugated anti-mouse and anti-rabbit antibodies were used as secondary antibodies (1:5000, Cell Signaling). For signal detection, Immobilon Chemiluminescent HRP Substrate (Millipore) was used.
as §2
Western Blot Analysis: Tissue lysates for western analysis were made by grinding 10-20 hindguts in lysis buffer (50 mM Tris-HCl, 150 mM NaCl, 1 mM EDTA, 1% NP-40) supplemented with protease and phosphatase inhibitor cocktails (Sigma). Lysates were boiled for 10 minutes in SDS Sample buffer and reducing agent, resolved on SDS-Page and transferred using standard protocols. Cell lysates are prepared similarly. Protein concentrations were determined using BioRad Protein Assay Dye Reagent following manufacturer's instructions.

DLD-1 cells = experiment: MTT viability assay, DLD-1 cells; assay type: cell-based, human; details: for viability after bortezomib pre-treatment alone: doses that sensitize to BEZ235
Protocol: (§6) Cell culture: Parental DLD-1 and HCT-116 cell lines (ATCC) and their PI3K wildtype derivatives (DLD-1 WT and HCT116 WT) (38) that were obtained from Dr. Bert Vogelstein's laboratory were maintained using DMEM with 10% FBS. All experiments were done under low serum (2.5% FBS) conditions (38). MTT assay: Cells were grown in sterile 25 cm^2 flasks to 80% confluency, trypsinized, resuspended in 100 mL DMEM with 2.5% FBS and seeded in 96-well plates in equal numbers. After 24 hours, cells were treated with compounds diluted in DMEM with 2.5% FBS as indicated for 1, 2 or 3 days. MTT assay was performed by replacing compound containing medium with fresh DMEM with 2.5% FBS and 10 mg/ml MTT reagent (Thiazoyl Blue tetrazolium Bromide, Fisher Scientific) in PBS at a ratio of 5:1 (120 μl/well; 96-well plates). Cells are incubated at 37° C. for 3 hours, then the medium is removed and cells are incubated in MTT solvent (4 mM HCl, 0.1% NP40 in isopropanol) on a shaker. The amount of MTT formazan in the resulting solution is spectrophotometrically measured at […] (and a reference filter of 620 nM). Adjusted absorbance value for each well is calculated using the following formula: (OD590SAMPLE-OD590BLANK)−(OD620SAMPLE-OD620BLANK). Each experiment is done in quadruple and relative viability is expressed as fold change in adjusted absorbance compared to untreated and DMSO treated controls in each plate.

HCT116 cells = experiment: MTT viability assay, HCT116 cells; assay type: cell-based, human
Protocol: as §6

[5] = system: ras^G12V animals (adult hindgut); experiment: Dissemination (distant migration) into the abdominal cavity after compound feeding, ras^G12V model; assay type: in vivo, Drosophila; details: compounds fed for one week, single agent
Protocol: as §1, §3, §4, §5

PI3K pathway = experiment: Western blot of PI3K pathway activation in DLD-1 cells; assay type: cell-based, human; details: DLD-1 cells treated with bortezomib
Source text: Western Blot Analysis: Primary antibodies used were rabbit anti-Drosophila phospho-AKT ([MUT]) (1:1000, Cell Signaling), rabbit anti-pan-AKT (1:1000, Cell Signaling), rabbit anti-phospho-4EBP (T37/46) (1:1000, Cell Signaling), rabbit anti-human phospho-AKT (Ser473) (1:1000, Cell Signaling), mouse anti-α-actin (1:1000, Cell Signaling) and mouse anti-Syntaxin (1:1000, DSHB). HRP-conjugated anti-mouse and anti-rabbit antibodies were used as secondary antibodies (1:5000, Cell Signaling). For signal detection, Immobilon Chemiluminescent HRP Substrate (Millipore) was used. […] All experiments were done under low serum (2.5% FBS) conditions (38). […] Lysates were boiled for 10 minutes in SDS Sample buffer and reducing agent, resolved on SDS-Page and transferred using standard protocols. Cell lysates are prepared similarly. Protein concentrations were determined using BioRad Protein Assay Dye Reagent following manufacturer's instructions.

[6] = system: ras^G12V p53^RNAi pten^RNAi apc^RNAi animals; details: Drosophila, in vivo, 7 days
Protocol: Targets, feeding doses and toxicity of compounds. a, List of compounds used for feeding experiments along with their targets, mechanisms of actions and concentrations used in the food. Estimated amount ingested was calculated based on our observations that adult females ingest approximately 0.2 μl of food per day (not shown). Estimated amount of ingested compound was also converted into mg/kg body weight/day using 1.1 mg as the average weight of an adult female. b, Survival curves of ras^G12V p53^RNAi pten^RNAi apc^RNAi animals fed the indicated compounds.

Cn1c(=O)n(-c2ccc(C(C)(C)C#N)cc2)c2c3cc(-c4cnc5ccccc5c4)ccc3ncc21 [BEZ235]
dissemination in combination with bortezomib ([1]; four-hit model): synergized
dissemination after sequential treatment, bortezomib followed by BEZ235 ([1]; four-hit model, sequential feeding): effective; also recorded: much more effective than concurrent feeding
dissemination, response to BEZ235 [2]: sufficient to direct resistance to BEZ235
dissemination, response to BEZ235 [3]: rendered the animals sensitive to BEZ235
p-4EBP levels ([4]; combined with bortezomib): reduced p-4EBP back to baseline levels
sensitivity to BEZ235 after pretreatment with bortezomib (DLD-1 cells; DLD-1 cells, bortezomib pretreatment for 24 hours): Increased sensitivity; also recorded: rendered DLD-1 cells sensitive to BEZ235 treatment; also recorded: sensitize the cells to BEZ235
BEZ235 dose response, parental versus PI3K wildtype line (DLD-1 cells; DLD-1 parental (Ras and PI3K active) vs DLD-1-WT): more resistant to BEZ235 than the derivative line DLD-1-WT
sensitivity to BEZ235 after pretreatment with bortezomib (HCT116 cells; HCT116 cells, bortezomib pretreatment for 24 hours): sensitize the cells to BEZ235
BEZ235 dose response, parental versus PI3K wildtype line (HCT116 cells; HCT116 parental (Ras and PI3K active) vs HCT116-WT): more resistant to BEZ235 than its PI3K pathway wildtype counterpart, HCT116-WT

Cc1[nH]c2ccccc2c1CCNCc1ccc(/C=C/C(=O)NO)cc1 [LBH589]
distant migration (dissemination into the abdominal cavity) [5]: effective against ras^G12V
distant migration (dissemination into the abdominal cavity) [1]: not against ras^G12V p53^RNAi pten^RNAi apc^RNAi at non-toxic doses

CC(C)C[C@H](NC(=O)[C@H](Cc1ccccc1)NC(=O)c1cnccn1)B(O)O [bortezomib]
distant migration (dissemination into the abdominal cavity) [1]: only showed efficacy at doses that otherwise killed more than 70% of the animals
PI3K and TORC1 activity ([4]; low doses of bortezomib): directed upregulation of PI3K and TORC1 activity
p-4EBP levels ([4]; bortezomib treatment alone): increase in p-4EBP levels
viability after bortezomib pre-treatment alone (DLD-1 cells; DLD-1 cells): did not affect survival
viability after bortezomib pre-treatment alone (DLD-1 cells; DLD-1 cells, listed as Bortezomib): does not affect the viability; also recorded: has no effect on viability
viability after bortezomib pre-treatment alone (HCT116 cells; HCT116 cells, doses that sensitize to BEZ235): does not affect the viability; also recorded: has no effect on viability
PI3K pathway activation status (PI3K pathway): activated the PI3K pathway
animals killed at doses showing efficacy [6]: more than 70 % of the animals

Oc1cccc(-c2nc(N3CCOCC3)c3oc4ncccc4c3n2)c1 [P1103]
dissemination in combination with bortezomib ([1]; four-hit model): synergized

O=c1cc(N2CCOCC2)oc2c(-c3ccccc3)cccc12 [LY294002, 2-(4-morpholinyl)-8-phenyl-4H-1-benzopyran-4-one]
dissemination in combination with bortezomib ([1]; four-hit model): synergized
p-4EBP levels ([4]; combined with bortezomib): reduced p-4EBP back to baseline levels
